This is an account of results in patent US7589097B2, “Triazol[4,5-d] pyramidine derivatives and their use as purinergic receptor antagonists” (Vernalis Research Limited, priority 2001, dated 2009).

As usually defined, the Ki is a dissociation constant, usually derived from enzyme kinetics or from competition with a known ligand. As a reminder, the melting point is the temperature, or range, at which the solid turns liquid.

Molecules are shown by their SMILES.

For series [1], the target named is human adenosine A2A receptors (Homo sapiens, UniProt P29274). The series is described as follows: Binding affinities at hA2A receptors, displacement of [3H]-CGS 21680. An excerpt: Adenosine Receptor Binding Binding Affinities at hA2A Receptors
In general terms: Loss of bound radioactivity is the signal in a displacement assay; it reports binding, not function.

In another series the test system is cataleptic responses. The note with it: cited from earlier work.
The subject of the next series is Parkinsonian patients. Conditions: cited from earlier work.

Sequence of human adenosine A2A receptors (P29274 whole entry): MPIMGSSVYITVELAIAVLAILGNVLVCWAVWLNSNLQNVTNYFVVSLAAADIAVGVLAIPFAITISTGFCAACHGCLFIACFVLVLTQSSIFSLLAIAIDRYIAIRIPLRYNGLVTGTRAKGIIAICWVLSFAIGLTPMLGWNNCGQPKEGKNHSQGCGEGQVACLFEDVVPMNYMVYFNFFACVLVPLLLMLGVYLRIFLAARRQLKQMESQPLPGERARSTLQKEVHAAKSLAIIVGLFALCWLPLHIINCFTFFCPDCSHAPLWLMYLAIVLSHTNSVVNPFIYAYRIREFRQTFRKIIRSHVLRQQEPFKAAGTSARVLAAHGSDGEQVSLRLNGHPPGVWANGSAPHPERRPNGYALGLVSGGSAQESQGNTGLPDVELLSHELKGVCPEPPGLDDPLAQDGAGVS

On to `CN(C)Cc1cccc(Cn2nnc3c(-c4ccco4)nc(N)nc32)n1` [Example 233, 3-(6-(N,N-dimethylamino)methyl-2-pyridylmethyl)-7-(2-furyl)-3H-[1,2,3]triazolo[4,5-d]pyrimidine-5-amine], for which the melting point lay in the range of 219.7 to 222.3 °C. This molecule also gave a Ki in series [1] of 4 nM.
In turn, `Nc1cccc(Cn2nnc3c(-c4ccco4)nc(N)nc32)c1` [Example 5, 3-(3-Aminobenzyl)-7-(2-furyl)-3H-[1,2,3]triazolo[4,5-d]pyrimidine-5-amine] yielded a melting point of 259.8 to 259.9 °C. Also, the inhibition constant Ki in series [1] amounted to 3 nM.
`CCCn1c(=O)c2c(nc(/C=C/c3ccc(OC)c(OC)c3)n2C)n(CCC)c1=O` [KF 17837, (E)-8-(3,4-dimethoxystyryl)-1,3-dipropyl-7-methylxanthine]: in the series on cataleptic responses (in vivo), the “anticataleptic effects of a subthreshold dose of L-DOPA plus benserazide” value is “potentiated”; the “catalepsy induced by haloperidol and reserpine” value is “reduced”. For the same molecule, in the series with cataleptic responses (oral administration), the “cataleptic responses induced by intracerebroventricular CGS 21680” value is on record as “significantly ameliorated”.
With `Nc1nc(-c2ccco2)c2nnn(Cc3cccc([N+](=O)[O-])c3)c2n1` [Example 4, 7-(2-furyl)-3-(3-nitrobenzyl)-3H-[1,2,3]triazolo[4,5-d]pyrimidine-5-amine], the Ki in series [1] came out at 4 nM.
In turn, `Nc1nc(-c2ccco2)c2nnn(Cc3ccc4ccccc4n3)c2n1` [Example 188, 7-(2-furyl)-3-(quinolin-2-ylmethyl)-3H-[1,2,3]triazolo[4,5-d]pyrimidine-5-amine] displayed a melting point of 228.9 to 229.9 °C. The molecule further came in with a Ki in series [1] of 1 nM.
`Nc1nc(-c2ccco2)c2nnn(Cc3cc(I)ccc3F)c2n1` [Example 169, 3-(2-fluoro-5-iodobenzyl)-7-(2-furyl)-3H-[1,2,3]triazolo[4,5-d]pyrimidine-5-amine]: the inhibitory constant (Ki) in series [1] turned out to be 2 nM.
Regarding `Nc1nc(-c2ccco2)c2nnn(Cc3ccc4c(c3)OCO4)c2n1` [Example 209, 7-(2-furyl)-3-(3,4-methylenedioxybenzyl)-3H-[1,2,3]triazolo[4,5-d]pyrimidine-5-amine], the melting point was > 250 °C (dec.). For the same molecule, the inhibition constant (Ki) in series [1] was determined as 1 nM.
Consider `Nc1nc(-c2ccco2)c2nnn(Cc3c(F)cc(O)cc3F)c2n1` [Example 149, 3-(2,6-difluoro-4-hydroxybenzyl)-7-(2-furyl)-3H-[1,2,3]triazolo[4,5-d]pyrimidine-5-amine], for which the Ki in series [1] turned out to be 1 nM.
As to `Nc1nc(-c2ccco2)c2nnn(Cc3cc([N+](=O)[O-])ccc3F)c2n1` [Example 78, 3-(2-fluoro-5-nitrobenzyl)-7-(2-furyl)-3H-[1,2,3]triazolo[4,5-d]pyrimidine-5-amine], the affinity in series [1] corresponds to a Ki of 3 nM.
In turn, `Nc1nc(-c2ccco2)c2nnn(Cc3ccc(Cl)cc3N)c2n1` [Example 120, 3-(2-amino-4-chlorobenzyl)-7-(2-furyl)-3H-[1,2,3]triazolo[4,5-d]pyrimidine-5-amine] gave a melting point of 211.4 to 211.6 °C. This molecule also came in with an inhibition constant Ki in series [1] of 1 nM.
Regarding `Cn1c(=O)c2[nH]cnc2n(C)c1=O` [Theophylline, theophylline], in the series on Parkinsonian patients (15 Parkinsonian patients, up to 12 weeks, 150 mg/day oral), the “mean objective disability scores” value was “significant improvements”. In addition, in the series on Parkinsonian patients (of 15 Parkinsonian patients, up to 12 weeks, 150 mg/day oral), the “patients reporting moderate or marked subjective improvement” value is 11. For the same molecule, the serum theophylline levels in the series with Parkinsonian patients (slow release oral preparation 150 mg/day, after one week, Parkinsonian patients) is 4.44 mg/L.
`C=Cc1cccc(Cn2nnc3c(-c4ccco4)nc(N)nc32)n1` [Example 202, 7-(2-furyl)-3-(6-vinyl-2-pyridylmethyl)-3H-[1,2,3]triazolo[4,5-d]pyrimidine-5-amine] registered a melting point of 210.5 to 211.6 °C. The molecule also displayed an inhibition constant Ki in series [1] of 1 nM.
In the same order, the values of `Nc1nc(-c2ccco2)c2nnn(Cc3c(F)cccc3F)c2n1` [Example 41, 3-(2,6-difluorobenzyl)-7-(2-furyl)-3H-[1,2,3]triazolo[4,5-d]pyrimidine-5-amine] are 213.8 to 213.9 °C and 2 nM.
In the same order, the values of `Cc1cccc(Cn2nnc3c(-c4ccco4)nc(N)nc32)c1[N+](=O)[O-]` [Example 92, 7-(2-furyl)-3-(3-methyl-2-nitrobenzyl)-3H-[1,2,3]triazolo[4,5-d]pyrimidine-5-amine] are 267.9 to 268.5 °C and 2 nM.
For `COc1cc(F)c(Cn2nnc3c(-c4ccco4)nc(N)nc32)c(F)c1` [Example 156, 3-(2,6-Difluoro-4-methoxybenzyl)-7-(2-furyl)-3H-[1,2,3]triazolol[4,5-d]pyrimidine-5-amine], the melting point was in the range of 274.2 to 274.3 °C. For the same molecule, the Ki in series [1] was 2 nM.
In the case of `Nc1nc(-c2ccco2)c2nnn(Cc3cccc(F)c3F)c2n1` [Example 57, 3-(2,3-difluorobenzyl)-7-(2-furyl)-3H-[1,2,3]triazolo[4,5-d]pyrimidine-5-amine], the melting point was 188.8 to 188.9 °C. Moreover, in series [1], the Ki was found to be 2 nM.
In the same order, the values of `Nc1nc(-c2ccco2)c2nnn(Cc3cccc(NCc4ccccn4)c3)c2n1` [Example 255, 3-(3-(2-pyridylmethylamino)benzyl)-7-(2-furyl)-3H-[1,2,3]triazolo[4,5-d]pyrimidine-5-amine] are 184.5 to 184.6 °C and 4 nM.
`Nc1nc(-c2ccco2)c2nnn(Cc3cccc4cccnc34)c2n1` [Example 107, 7-(2-furyl)-3-(8-quinolinylmethyl)-3H-[1,2,3]triazolo[4,5-d]pyrimidine-5-amine] returned a melting point of 276.4 to 277.4 °C. This molecule also showed an inhibitory constant (Ki) in series [1] of 2 nM.
In the case of `Nc1nc(-c2ccco2)c2nnn(Cc3ccccc3F)c2n1` [Example 3, 3-(2-Fluorobenzyl)-7-(2-furyl)-3H-[1,2,3]triazolo[4,5-d]pyrimidine-5-amine], the affinity in series [1], expressed as Ki, was 3 nM.
